Like-named read-outs stand apart in the source and are kept apart here.
Test system: M. mycetomatis genome strain MM55
Experiment: CLSI M38-A2 based in vitro susceptibility screening (XTT or resazurin), growth at fixed concentration
Format: cell-based, Madurella mycetomatis
Settings: Madurella mycetomatis; for Percent fungal survival at 100 µM: read-out: Percentage survival at 100um, 100 uM A (second replicate column)
[1] = mean of three, M. mycetomatis MM55, read-out: Percentage survival at 25um, 25 uM mean
[2] = replicate A, M. mycetomatis MM55, read-out: Percentage survival at 25um, 25 um A
[3] = replicate B, M. mycetomatis MM55, read-out: Percentage survival at 25um, 25 uM B
[4] = replicate C, M. mycetomatis MM55, read-out: Percentage survival at 25um, 25 uM C
[5] = mean of three, M. mycetomatis MM55, read-out: Percentage survival at 100um, 100 uM mean
[6] = replicate 1, M. mycetomatis MM55, read-out: Percentage survival at 100um, 100 uM A (first replicate column)
[7] = replicate 2, M. mycetomatis MM55
[8] = replicate 3, M. mycetomatis MM55, read-out: Percentage survival at 100um, 100 uM A (third replicate column)
[9] = replicate A, read-out: Percentage survival at 25um, 25 um A
[10] = replicate B, read-out: Percentage survival at 25um, 25 uM B
[11] = replicate C, read-out: Percentage survival at 25um, 25 uM C
[12] = mean of replicates, read-out: Percentage survival at 25um, 25 uM mean
[13] = mean of replicates, read-out: Percentage survival at 100um, 100 uM mean
[14] = replicate 1, read-out: Percentage survival at 100um, 100 uM A
[15] = replicate 2, read-out: Percentage survival at 100um, 100 uM A
[16] = replicate 3, read-out: Percentage survival at 100um, 100 uM A
[17] = mean of three replicates, read-out: Percentage survival at 25um, 25 uM mean
[18] = first replicate column, read-out: Percentage survival at 100um, 100 uM A
[19] = mean of three replicates, read-out: Percentage survival at 100um, 100 uM mean
[20] = second replicate column, read-out: Percentage survival at 100um, 100 uM A
[21] = third replicate column, read-out: Percentage survival at 100um, 100 uM A
[22] = mean of replicates, MM55, read-out: Percentage survival at 25um, 25 uM mean
[23] = replicate A, MM55, read-out: Percentage survival at 25um, 25 um A
[24] = replicate B, MM55, read-out: Percentage survival at 25um, 25 uM B
[25] = replicate C, MM55, read-out: Percentage survival at 25um, 25 uM C
[26] = mean of replicates, MM55, read-out: Percentage survival at 100um, 100 uM mean
[27] = replicate 1, MM55, read-out: Percentage survival at 100um, 100 uM A
[28] = replicate 2, MM55, read-out: Percentage survival at 100um, 100 uM A
[29] = replicate 3, MM55, read-out: Percentage survival at 100um, 100 uM A
[30] = replicate 1, read-out: Percentage survival at 100um, 100 uM A (first replicate column)
[31] = replicate 3, read-out: Percentage survival at 100um, 100 uM A (third replicate column)

Q: Which results are given for `CO[C@@]1(NC(=O)Cc2cccs2)C(=O)N2C(C(=O)O)=C(COC(N)=O)CS[C@@H]21` [MMV1578559]?
A: activity at 25 µM [1]: 84.2%; activity at 25 µM [2]: 91.6%; activity at 25 µM [3]: 86.2%; activity at 25 µM [4]: 74.6%; activity at 100 µM [5]: 90.3%; activity at 100 µM [6]: 87.3%; Percent fungal survival at 100 µM [7]: 98.4%; activity at 100 µM [8]: 85.1%

Q: Which activity at 25 µM (mean, read-out: Percentage survival at 25um, 25 uM mean) does the source give for `O=C(CP(=O)(O)O)NCCc1cccc(Oc2ccccc2)c1` [MMV1579787] here?
A: 79.8%

Q: What about the activity at 25 µM [9] of the same compound?
A: 84.6%

Q: And the activity at 25 µM [10]?
A: 81.7%

Q: What about the activity at 25 µM [11] of the same compound?
A: 73.2%

Q: And the activity at 100 µM (mean, read-out: Percentage survival at 100um, 100 uM mean)?
A: 46.3%

Q: And the activity at 100 µM (replicate (first column), read-out: Percentage survival at 100um, 100 uM A)?
A: -0.0188%

Q: And the activity at 100 µM (replicate (second column), read-out: Percentage survival at 100um, 100 uM A)?
A: 65.7%

Q: And the activity at 100 µM (replicate (third column), read-out: Percentage survival at 100um, 100 uM A)?
A: 73.3%

Q: What does the source list for `O=C(N[C@H](CCS)C(=O)N[C@H](Cc1ccccc1)C(=O)O)c1cc2ccccc2[nH]1` [MMV1581557]?
A: activity at 25 µM [12]: 85.4%; activity at 25 µM [9]: 88.1%; activity at 25 µM [10]: 98.1%; activity at 25 µM [11]: 70%; activity at 100 µM [13]: 83.1%; activity at 100 µM [14]: 82.1%; activity at 100 µM [15]: 85.3%; activity at 100 µM [16]: 81.8%

Q: Which results are given for `COc1ccc(-n2cnc3cc(NCc4ccco4)ccc32)cc1` [MMV617332]?
A: activity at 25 µM [17]: 61.8%; activity at 25 µM [9]: 70.4%; activity at 25 µM [10]: 107%; activity at 25 µM [11]: 7.47%; activity at 100 µM [18]: 18.3%; activity at 100 µM [19]: 7.71%; activity at 100 µM [20]: 3.66%; activity at 100 µM [21]: 1.23%

Q: How did the activity at 25 µM [17] turn out when `Cc1ccccc1NC(=O)Nc1cccc([N+](=O)[O-])c1` [MMV1581029] was run?
A: 89.2%

Q: What about the activity at 25 µM [9] of the same compound?
A: 95.8%

Q: And the activity at 25 µM [10]?
A: 97.7%

Q: And the activity at 25 µM [11]?
A: 74%

Q: And the activity at 100 µM [18]?
A: 95.6%

Q: What about the activity at 100 µM [19] of the same compound?
A: 92.5%

Q: What about the activity at 100 µM [20] of the same compound?
A: 104%

Q: And the activity at 100 µM [21]?
A: 77.8%

Q: How did the activity at 25 µM [22] turn out when `c1cc(CN2CCCNCCNCCCNCC2)ccc1CN1CCCNCCNCCCNCC1` [MMV1580502] was run?
A: 91.1%

Q: What about the activity at 25 µM [23] of the same compound?
A: 89%

Q: What about the activity at 25 µM [24] of the same compound?
A: 97.4%

Q: And the activity at 25 µM [25]?
A: 86.9%

Q: What about the activity at 100 µM [26] of the same compound?
A: 83.6%

Q: What about the activity at 100 µM [27] of the same compound?
A: 86.9%

Q: And the activity at 100 µM [28]?
A: 83.7%

Q: What about the activity at 100 µM [29] of the same compound?
A: 80.2%

Q: For `Cc1ncc([N+](=O)[O-])n1CC(C)O` (stereo not shown) [MMV002287], which activity at 25 µM [17] is on record?
A: 111%

Q: What about the activity at 25 µM [9] of the same compound?
A: 140%

Q: What about the activity at 25 µM [10] of the same compound?
A: 90.9%

Q: And the activity at 25 µM [11]?
A: 103%

Q: And the activity at 100 µM [19]?
A: 100%

Q: And the activity at 100 µM [30]?
A: 89.4%

Q: And the Percent fungal survival at 100 µM (replicate 2)?
A: 122%

Q: And the activity at 100 µM [31]?
A: 90.2%

Q: How did the activity at 25 µM [17] turn out when `O=C(Cn1cnc2ccccc2c1=O)Nc1ccccc1` [MMV1578891] was run?
A: 80.3%

Q: What about the activity at 25 µM [9] of the same compound?
A: 84%

Q: And the activity at 25 µM [10]?
A: 82.2%

Q: What about the activity at 25 µM [11] of the same compound?
A: 74.7%

Q: What about the activity at 100 µM [19] of the same compound?
A: 83.9%

Q: And the activity at 100 µM [30]?
A: 90.8%

Q: What about the Percent fungal survival at 100 µM (replicate 2) of the same compound?
A: 79.4%

Q: And the activity at 100 µM [31]?
A: 81.6%

Q: Which activity at 25 µM [1] does the source give for `CCc1nc(N)nc(N)c1C#CC(C)c1cc(OC)cc(-c2ccncc2)c1` (stereo not shown) [MMV1580844] here?
A: 31.6%

Q: And the activity at 25 µM [2]?
A: 86.9%

Q: What about the activity at 25 µM [3] of the same compound?
A: 5.16%

Q: And the activity at 25 µM [4]?
A: 2.83%

Q: What about the activity at 100 µM [5] of the same compound?
A: -1.56%

Q: What about the activity at 100 µM [6] of the same compound?
A: -1.7%

Q: And the Percent fungal survival at 100 µM [7]?
A: -1.01%

Q: And the activity at 100 µM [8]?
A: -1.98%

Q: Which results are given for `CC(N)C12CC3CC(CC(C3)C1)C2` (stereo not shown) [MMV637855]?
A: activity at 25 µM [22]: 86%; activity at 25 µM [23]: 78.5%; activity at 25 µM [24]: 82.6%; activity at 25 µM [25]: 96.9%; activity at 100 µM [26]: 60.7%; activity at 100 µM [27]: 60.1%; activity at 100 µM [28]: 57.9%; activity at 100 µM [29]: 64%

Q: `O=[N+]([O-])c1cn2c(n1)OC[C@@H](OCc1ccc(OC(F)(F)F)cc1)C2` [MMV688755] was tested. Which activity at 25 µM [12] did it give?
A: 85.3%

Q: What about the activity at 25 µM [9] of the same compound?
A: 91.8%

Q: What about the activity at 25 µM [10] of the same compound?
A: 92.4%

Q: What about the activity at 25 µM [11] of the same compound?
A: 71.7%

Q: And the activity at 100 µM [13]?
A: 85.9%

Q: What about the activity at 100 µM [14] of the same compound?
A: 75%

Q: What about the activity at 100 µM [15] of the same compound?
A: 105%

Q: What about the activity at 100 µM [16] of the same compound?
A: 77.3%
